According to US12240827B2, “Serotonin 5-HT2B inhibitory compounds” (Zoetis Services LLC, priority 2019, dated 2025):
pIC50: −log10 of the molar value.

Key:
[1] = test system: dogs with Stage B2 MMVD; settings: cited from earlier work
[2] = test system: c5-HT2B; settings: literature value; cited from earlier work
[3] = target: T1, canine 5-HT2B receptor (Canis lupus familiaris, UniProt Q50DZ8); assay: Canine 5-HT2B (c5-HT2B) in-vitro assay, FLIPR calcium response; type: cell-based; settings: CHO-K1 cells stably expressing canine 5-HT2B receptor; inhibition of EC80 serotonin calcium response
T1 construct: expressed in transfected cells; host or cells: CHO-K1
Experimental: CHO-K1 cells stably expressing the canine 5-HT2B receptor were seeded at 20,000 cells per well in 20 μl culture media (DMEM with GlutaMAX™ high glucose+5% dialyzed FBS+10 mM HEPES+1×MEM Non-Essential Amino Acids of a 384-well black plate with clear bottom for at least 18 hours at 37° C. and 5% CO2. The cell plate was loaded with 20 μl/well of the FLIPR® Calcium 5 Assay kit prepared in HBSS containing calcium and magnesium supplemented with 20 mM HEPES and 5 mM Probenecid at pH 7.4 and incubated at 37° C. and 5% CO2 for 30 minutes and then an additional 30 minutes at room temperature. The intracellular calcium response was measured using the FLIPR Tetra® instrument measuring the kinetic response of the Calcium 5 dye at an excitation wavelength of 470-495 nm and emission wavelength of 515-575 nm at room temperature. The cells were initially challenged with a 5× concentration of the antagonist (10 μl/well) after an initial baseline recording and the calcium response was recorded for almost 2 minutes. After the completion of the initial antagonist challenge, the cell plate was incubated at room temperature in the FLIPR Tetra® instrument for 10 minutes. Finally, a second kinetic assay was performed after the 10 minute incubation at room temperature to measure the inhibitory response of the EC80 concentration of serotonin (15 μl/well) after an initial baseline recording. The IC50 concentration was determined for each antagonist tested.

[4] = target: T2, hERG (Homo sapiens, UniProt Q12809); assay: hERG in-vitro assay, IonWorks Barracuda population patch clamp; type: cell-based; settings: hERG/HEK293 cells; hERG current block, 5 minutes exposure
T2 construct: stably transfected with full length hERG cDNA; expressed in transfected cells; host or cells: HEK293
Experimental: Stock solutions of compounds of the invention and positive control (cisapride; 0.001-3 μM) were prepared in DMSO. Stock solutions were diluted in a HEPES-buffered physiological saline solution. Test and control solutions contained 0.3% DMSO. Human hERG/HEK293 renal epithelial cells stably transfected with full length hERG cDNA were cultured in Dulbecco's Modified Eagle Medium/Nutrient Mixture F-12 (D-MEM/F-12) supplemented with 10% fetal bovine serum, 100 U/mL penicillin G sodium, 100 μg/mL streptomycin sulfate and 500 μg/mL G418. Before testing, cells in culture dishes were rinsed with Hank's Balanced Salt Solution (HBSS) and detached with accutase. Immediately before use in the IonWorks Barracuda™ system, the cells were washed with buffered physiological saline solution (HB-PS) buffer to remove the accutase and re-suspended in 5 mL of HB-PS. The test article effects were evaluated using IonWorks Barracuda™ systems (Molecular Devices Corporation, Union City, CA). HEPES-buffered intracellular solution for whole cell recordings was loaded into the intracellular compartment of the Population Patch Clamp™ (PPC) planar electrode.
Extracellular buffer (HB-PS) was loaded into PPC planar electrode plate wells (11 μL/well). The cell suspension was pipetted into the wells of the PPC planar electrode (9 μL/well). After establishment of a whole-cell configuration (the perforated patch), membrane currents were recorded using patch clamp amplifier in the IonWorks Barracuda™ system. The current recordings were performed one (1) time before test article application to the cells (baseline) and one (1) time after application of the test article. Test article concentrations were applied to naïve cells. Each application consisted of addition of 20 μL of 2× concentrated test article solution to the total 40 μL of final volume of the extracellular well of the PPC plate. Duration of exposure to each compound concentration was five (5) minutes. hERG current was elicited using a pulse pattern with fixed amplitudes (the first conditioning pre-pulse to 10 mV for 60 second, the second conditioning pre-pulse: −90 mV for 20 ms; the test pulse: +40 mV for 100 ms) from a holding potential of 0 mV (‘zero holding’ procedure). hERG current was measured as a difference between the peak current at 1 ms and at the end of test step to +40 mV. Data acquisition and analyses were performed using the IonWorks Barracuda™ system operation software (version 2.0.2). The decrease in current amplitude after test article application was used to calculate the percent block relative to control. Results for each test article concentration (n≥1) were averaged; the mean and standard deviation values were calculated and used to generate dose-response curves.

T1 sequence (Q50DZ8 1-434): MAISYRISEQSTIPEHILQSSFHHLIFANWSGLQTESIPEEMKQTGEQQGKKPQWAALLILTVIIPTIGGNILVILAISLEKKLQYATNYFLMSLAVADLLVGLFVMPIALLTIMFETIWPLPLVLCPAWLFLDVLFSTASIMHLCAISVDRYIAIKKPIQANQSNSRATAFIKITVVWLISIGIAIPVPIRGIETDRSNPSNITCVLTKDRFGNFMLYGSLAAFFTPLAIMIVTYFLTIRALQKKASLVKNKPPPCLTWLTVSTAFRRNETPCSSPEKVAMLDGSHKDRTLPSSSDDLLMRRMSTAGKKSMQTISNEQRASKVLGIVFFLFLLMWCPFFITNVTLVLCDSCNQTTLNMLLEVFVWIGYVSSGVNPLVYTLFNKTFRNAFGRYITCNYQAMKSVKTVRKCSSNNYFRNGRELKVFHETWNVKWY
T2 sequence (Q12809 whole entry): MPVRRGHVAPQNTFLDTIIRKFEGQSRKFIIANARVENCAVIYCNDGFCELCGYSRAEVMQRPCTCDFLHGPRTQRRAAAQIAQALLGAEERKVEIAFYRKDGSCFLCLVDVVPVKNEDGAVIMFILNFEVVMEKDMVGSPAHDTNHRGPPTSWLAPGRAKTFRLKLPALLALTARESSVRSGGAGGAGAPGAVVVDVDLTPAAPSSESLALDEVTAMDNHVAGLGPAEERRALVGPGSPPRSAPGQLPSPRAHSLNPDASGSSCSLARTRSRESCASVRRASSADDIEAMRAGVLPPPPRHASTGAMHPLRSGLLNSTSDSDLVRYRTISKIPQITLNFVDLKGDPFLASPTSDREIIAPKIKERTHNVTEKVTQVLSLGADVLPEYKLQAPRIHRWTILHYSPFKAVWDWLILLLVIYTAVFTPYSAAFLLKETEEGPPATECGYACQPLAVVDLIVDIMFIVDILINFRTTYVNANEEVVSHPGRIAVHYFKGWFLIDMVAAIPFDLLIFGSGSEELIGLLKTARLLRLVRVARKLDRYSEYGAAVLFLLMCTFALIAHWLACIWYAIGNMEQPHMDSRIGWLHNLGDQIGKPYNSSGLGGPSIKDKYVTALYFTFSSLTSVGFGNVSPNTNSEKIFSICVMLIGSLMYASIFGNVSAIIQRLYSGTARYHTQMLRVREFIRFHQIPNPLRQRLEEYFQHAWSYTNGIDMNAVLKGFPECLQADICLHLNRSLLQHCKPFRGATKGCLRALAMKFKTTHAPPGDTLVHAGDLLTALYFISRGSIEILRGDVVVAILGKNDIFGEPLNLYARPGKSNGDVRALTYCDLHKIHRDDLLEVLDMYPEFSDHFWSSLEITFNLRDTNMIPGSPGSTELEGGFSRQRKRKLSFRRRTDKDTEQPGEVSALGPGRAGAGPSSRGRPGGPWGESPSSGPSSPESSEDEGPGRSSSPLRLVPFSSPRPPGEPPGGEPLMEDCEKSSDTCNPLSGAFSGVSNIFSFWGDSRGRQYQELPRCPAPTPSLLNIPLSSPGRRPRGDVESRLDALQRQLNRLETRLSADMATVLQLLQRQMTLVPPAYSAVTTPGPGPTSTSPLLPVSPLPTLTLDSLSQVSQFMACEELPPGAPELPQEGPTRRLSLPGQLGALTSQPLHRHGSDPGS

SMILES | pIC50 [3] | time longer to develop CHF or die from MMVD than dogs receiving placebo ([1]; pimobendan 0.2 or 0.3 mg/kg twice a day) | delay in prolonging preclinical stage ([1]; versus placebo) | pIC50 [2] | pIC50 [4]
COc1ccc(-c2nc3ccc(C4=NNC(=O)CC4C)cc3[nH]2)cc1 (centres unmarked) [pimobendan] |  | 462 days | 60% |  | 
O=C(c1ccc(-c2ccc(OC(F)(F)F)cc2)cc1)N1CCC(c2nc3ccccc3[nH]2)CC1 [CA-2, (4-(1H-benzo[d]imidazol-2-yl)piperidin-1-yl)(4′-(trifluoromethoxy)-[1,1′-biphenyl]-4-yl)methanone] |  |  |  | 7.02 | 
Cc1cnc(C2CCN(C(=O)c3ccc(-c4n[nH]c5ccccc45)cc3)CC2)[nH]1 [Example 6, (4-(1H-indazol-3-yl)phenyl)(4-(5-methyl-1H-imidazol-2-yl)piperidin-1-yl)methanone] | 9.19 |  |  |  | 4.45
O=C(c1ccc(-c2cc3ccccc3[nH]2)cc1)N1CCC(c2ncc[nH]2)CC1 [Example 30, (4-(1H-imidazol-2-yl)piperidin-1-yl)(4-(1H-indol-2-yl)phenyl)methanone] | 8.71 |  |  |  | 4.96
O=C(c1ccc(-c2ccc(C(F)(F)F)cc2)cc1)N1CCC(c2ncc[nH]2)CC1 [Example 3, (4-(1H-imidazol-2-yl)piperidin-1-yl)(4′-(trifluoromethyl)-[1,1′-biphenyl]-4-yl)methanone] | 8.29 |  |  |  | 5.46
O=C(c1ccc(-c2cccc3[nH]ccc23)cc1)N1CCC(c2ncc[nH]2)CC1 [Example 17, (4-(1H-imidazol-2-yl)piperidin-1-yl)(4-(1H-indol-4-yl)phenyl)methanone] | 10.40 |  |  |  | 5.23
Cc1c[nH]c(C2CCN(C(=O)c3ccc(-c4c[nH]c5ccc(F)cc45)cc3)CC2)n1 [Example 34, (4-(5-fluoro-1H-indol-3-yl)phenyl)(4-(4-methyl-1H-imidazol-2-yl)piperidin-1-yl)methanone] | 7.68 |  |  |  | 4.86
O=C(c1ccc(-c2ccc(F)cc2)cc1)N1CCC(c2ncc[nH]2)CC1 [CA-4, (4-(1H-imidazol-2-yl)piperidin-1-yl)(4′-fluoro-[1,1′-biphenyl]-4-yl)methanone, reference compound] | 10.10 |  |  |  | > 7.52
Cc1c[nH]c(C2CCN(C(=O)c3ccc(-c4c(C)[nH]c5ccccc45)cc3)CC2)n1 [Example 26, (4-(4-methyl-1H-imidazol-2-yl)piperidin-1-yl)(4-(2-methyl-1H-indol-3-yl)phenyl)methanone] | 9.08 |  |  |  | 4.88
O=C(c1ccc(-c2ccc3c(c2)OCO3)cc1)N1CCC(c2ncc[nH]2)CC1 [Example 13, (4-(1H-imidazol-2-yl)piperidin-1-yl)(4-(benzo[d][1,3]dioxol-5-yl)phenyl)methanone] | 8.85 |  |  |  | 5.76

The remaining compounds from weak to strong by pIC50 [3], led by results:

pIC50 [3] | SMILES | time longer to develop CHF or die from MMVD than dogs receiving placebo ([1]; pimobendan 0.2 or 0.3 mg/kg twice a day) | delay in prolonging preclinical stage ([1]; versus placebo) | pIC50 [2] | pIC50 [4]
7.52 | O=C(c1ccc(-c2ccc(C(F)(F)F)cc2)cc1)N1CCC(Nc2ncc[nH]2)CC1 [Example 7, (4-((1H-imidazol-2-yl)amino)piperidin-1-yl)(4′-(trifluoromethyl)-[1,1′-biphenyl]-4-yl)methanone] |  |  |  | 5.60
7.66 | Cc1cnc(C2CCN(C(=O)c3ccc(-c4ccc(C(F)(F)F)cc4)cc3)CC2)[nH]1 [Example 4, (4-(5-methyl-1H-imidazol-2-yl)piperidin-1-yl)(4′-(trifluoromethyl)-[1,1′-biphenyl]-4-yl)methanone] |  |  |  | 5.95
9.38 | O=C(c1ccc(Nc2ccccc2)cc1)N1CCC(c2ncc[nH]2)CC1 [Example 9, (4-(1H-imidazol-2-yl)piperidin-1-yl)(4-(phenylamino)phenyl)methanone] |  |  |  | 5.41
9.48 | O=C(c1ccc(-c2n[nH]c3ccccc23)cc1)N1CCC(c2ncc[nH]2)CC1 [Example 24, (4-(1H-imidazol-2-yl)piperidin-1-yl)(4-(1H-indazol-3-yl)phenyl)methanone] |  |  |  | 4.47
10.70 | O=C(c1ccc(-c2c[nH]c3ccccc23)cc1)N1CCC(c2ncc[nH]2)CC1 [Example 23, (4-(1H-imidazol-2-yl)piperidin-1-yl)(4-(1H-indol-3-yl)phenyl)methanone] |  |  |  | 4.61
